Data on 105 compounds can be found in PubChem BioAssay AID1996.

Converted amounts (≈) assume the structure as drawn.

For this data set the following is noted: buffer; pH 7.4; 200.0 µM.
Broadly, the kinetic solubility is solubility judged after dilution from a stock solution rather than from solid. On to `CN(C)CCCn1c(=S)[nH]c2sc3c(c2c1=O)CCCC3`, for which the kinetic solubility is > 48.5 µg/mL.
For `O=S(=O)(NOCc1ccc(Cl)cc1)c1ccc(Cl)cc1` the value was < 0.7 µg/mL.
Next, `Cc1cnc(-n2c(=S)[nH]c3ccccc3c2=O)s1`: > 41.3 µg/mL; `Cc1ccc(C)c(NC(=O)C(CC(=O)O)C2CCCO2)c1` (stereo not given): 40.1 µg/mL (≈ 138 µM).
Next, `CC(=O)N1CCN(c2ccccc2NC(=O)c2ccc(C#N)cc2F)CC1`: 52.6 µg/mL (≈ 144 µM); `O=[N+]([O-])C(=C1NCCN1)C(Cl)=C(Cl)Cl`: > 38.8 µg/mL; `CC(C)c1ccc(NC(=O)COC(=O)CC2CCCC2)cc1`: 7.8 µg/mL (≈ 25.7 µM).
The compound `Cc1ccccc1CC1CCN(CCCNC(=O)Nc2ccccc2)CC1` gave a solubility (kinetic) of 39.9 µg/mL (≈ 109 µM).
On to `O=C1/C(=C/c2ccncc2)N2CCC1CC2`, for which the kinetic solubility is > 32.1 µg/mL.
`CCOc1ccccc1NC(=O)C(=O)CC(=O)c1ccc(OC)cc1`: the solubility (kinetic) worked out at 6.1 µg/mL (≈ 17.9 µM).
For the compound `O=C(O)C1=NN(c2ccccc2)C(=O)C1`, the kinetic solubility was > 30.6 µg/mL.
Next, `Nc1ccc(S(=O)(=O)[O-])cn1.[Na+]`: > 29.4 µg/mL; `CCN1CCCC1CNC(=O)c1[nH]c2ccc(OC)cc2c1C` (stereo not given): > 47.3 µg/mL.
For `CC(C)CN1CCCC(N2CCN(c3cccc(Cl)c3)CC2)C1` (stereo not given) the value was 39.8 µg/mL (≈ 118 µM); for `COc1cccc(C(=O)CC(C#N)c2ccc(F)cc2)c1` (stereo not given), 16 µg/mL (≈ 56.5 µM); for `Cc1ccsc1C(=O)OCc1cc(=O)n2ccsc2n1`, 6.3 µg/mL (≈ 20.6 µM).
Next, `CN(C)Cc1nc2ccccc2c(=O)n1CC#N`: > 36.3 µg/mL; `Cc1cc(C(=O)Nc2ncc(C)s2)c2ccccc2n1`: 18 µg/mL (≈ 63.5 µM); `CC1(C)C2CC=C(/C=N/NC(=O)C(N)=O)C1C2` (stereo not given): > 35.3 µg/mL.
Consider `Cc1cccnc1Oc1ncccc1N`, for which the kinetic solubility is > 30.2 µg/mL.
For `CC(NC(=O)c1ccc(Br)s1)c1ccncc1` (stereo not given) the value was > 46.7 µg/mL; for `CCOc1ncccc1C(=O)Nc1nc(SC)ns1`, 7.8 µg/mL (≈ 26.3 µM); for `O=C1CSC(c2ccc(F)cc2)N1c1c(F)cccc1F` (stereo not given), 31.2 µg/mL (≈ 101 µM).
For `CN(C(=O)CSc1ncnc2ccccc12)C1CCCCC1` the value was 45.4 µg/mL (≈ 144 µM); for `Cc1ccc(NS(=O)(=O)c2ccc3[nH]c(=O)c(=O)[nH]c3c2)cc1Cl`, 11.5 µg/mL (≈ 31.4 µM).
Next, `CC(=O)c1ccc(N2CCN(C(=O)Cc3cccs3)CC2)cc1`: 47.3 µg/mL (≈ 144 µM); `CC(=O)Nc1cc[n+](CC(=O)c2cccc([N+](=O)[O-])c2)cc1.[Cl-]`: 40.3 µg/mL; `CCc1ccc(C(C)NC(=O)c2ccncc2)cc1` (stereo not given): > 38.1 µg/mL.
For `O=c1c(/C=N/O)coc2ccc(Cl)cc12`, the kinetic solubility was 8.2 µg/mL (≈ 36.7 µM).
`CCOC(=O)C1CCCN(C(=O)Nc2c(-c3ccccc3)noc2C)C1` (stereo not given) returned a solubility (kinetic) of 52.4 µg/mL (≈ 147 µM).
Next, `Cc1ccc(OCCNS(=O)(=O)c2ccc(Cl)cc2)cc1`: 5.6 µg/mL (≈ 17.2 µM); `CCCCOC(=O)N1CCOCCOCCOCCOCC1`: > 47.9 µg/mL.
Next, `CCOC(=O)c1ccc(CC2SC(N)=NC2=O)cc1` (stereo not given): 36.6 µg/mL (≈ 131 µM).
Next, `O=C1CSC(c2ccccn2)N1c1ccccc1F` (stereo not given): 40.6 µg/mL (≈ 148 µM).
For `CN(C)/C=C1\SC(=S)N(c2ccc(F)cc2)C1=O`, the kinetic solubility came out at 12.6 µg/mL (≈ 44.6 µM).
For `FC(F)(F)c1ccccc1CNCc1ccncc1` the value was 29.4 µg/mL (≈ 110 µM); for `CCOC(=O)CN1C(=O)C(=O)N(Cc2c(C)cc(C)cc2C)C1=O`, 14 µg/mL (≈ 42.1 µM); for `O=C(c1ccc(-c2cccc(Cl)c2Cl)o1)N1CCOCC1`, 47.1 µg/mL (≈ 144 µM).
For `COC(=O)CN1C(=O)Nc2ccc(Cl)cc2C1c1ccccc1` (stereo not given) the value was 2.1 µg/mL (≈ 6.35 µM); for `O=C(NCCNC(=O)c1ccccc1[N+](=O)[O-])c1ccccc1[N+](=O)[O-]`, 11.4 µg/mL (≈ 31.8 µM); for `Cc1cc(C(=O)N2CCCC(C(=O)c3cc(F)ccc3F)C2)c(C)o1` (stereo not given), 42.5 µg/mL (≈ 122 µM).
For `O=C(NC(=S)N1CCN(C2CCCCC2)CC1)c1ccccc1`, the solubility (kinetic) was > 49.7 µg/mL.
Next, `S=C(NCCc1ccccc1)N1CCOCC1`: > 37.6 µg/mL.
Next, `CC(C)NCc1cc(Br)ccc1OCc1ccccc1.Cl`: > 55.6 µg/mL; `O=C(/C=C/c1ccc(F)cc1)c1ccc(N2CCOCC2)cc1`: 2.3 µg/mL (≈ 7.39 µM).
For `Cc1cc(C)cc(NC(=O)C2CCN(S(C)(=O)=O)CC2)c1` the value was 38.8 µg/mL (≈ 125 µM); for `COc1ccc(NC(=O)c2ccccc2Oc2ccccc2)c(OC)c1`, < 0.7 µg/mL; for `Cc1ccc(O)c(NC(=S)NC(=O)Cc2ccc(Cl)cc2)c1`, 1.3 µg/mL (≈ 3.88 µM).
As to `Cc1ccccc1C(=O)Nc1ccc(S(=O)(=O)Nc2onc(C)c2C)cc1`, the kinetic solubility amounted to 50.5 µg/mL (≈ 131 µM).
For `NC(=O)C1CCN(S(=O)(=O)c2ccc3c(c2)OCCO3)CC1` the value was > 49 µg/mL; for `O=C(Nc1cccc(F)c1)c1ccc(Cn2cc([N+](=O)[O-])cn2)o1`, > 49.5 µg/mL; for `O=C(CCNS(=O)(=O)c1ccccc1C(F)(F)F)NCCCN1CCOCC1`, > 63.5 µg/mL.
Next, `COc1ccc(CC(=O)Nc2cc(C)ccn2)cc1OC`: 27.7 µg/mL (≈ 96.7 µM).
Next, `CCOc1ccccc1N1CC(C(=O)N2CCOCC2)CC1=O` (stereo not given): 44.6 µg/mL (≈ 140 µM); `CC(=O)c1c(C)nc(-c2cccc([N+](=O)[O-])c2)n1O`: > 39.2 µg/mL.
The compound `COc1ccccc1CN(C)C(=O)c1cc2ccccc2o1` showed a kinetic solubility of 28.7 µg/mL (≈ 97.2 µM).
Next, `CCCCCN1CC(O)=C(c2nc3ccccc3[nH]2)C1=N`: 1.1 µg/mL (≈ 3.87 µM).
For `Nc1ccc(-c2nc3cc([N+](=O)[O-])ccc3o2)cc1` the value was 1.1 µg/mL (≈ 4.31 µM); for `CC(=O)c1c(C)[nH]c(C(=O)Nc2ccccn2)c1C`, > 38.6 µg/mL.
For `O=C(c1ccc(Cl)cc1Cl)N1CCc2ccccc21` the value was 13.9 µg/mL (≈ 47.6 µM).
`CCN1CCN(C(=O)/C=C/c2cccc(Cl)c2)CC1` had a solubility (kinetic) of 40 µg/mL (≈ 143 µM).
Next, `COc1cc(-c2ccc(NC(C)=O)c(OC)c2)ccc1NC(C)=O`: 10.1 µg/mL (≈ 30.8 µM).
For `O=C(CS(=O)(=O)c1ccccc1)NCc1ccco1` the value was 40.7 µg/mL (≈ 146 µM).
Next, `CCc1cc(=O)[nH]c(SCc2cccnc2)n1`: > 37.1 µg/mL.
`CC(=O)c1cccc(NC(=O)NC(C)c2ccc3c(c2)OCO3)c1` (stereo not given) returned a solubility (kinetic) of 6.9 µg/mL (≈ 21.1 µM).
With `COC(=O)c1ccc(-c2noc(CN3CCCC(CNC(C)=O)C3)n2)cc1` (stereo not given), the solubility (kinetic) turned out to be 43.3 µg/mL (≈ 116 µM).
Take `CC1CN(C(C)C)C(C)CC1OC(=O)c1ccccc1` (stereo not given): the kinetic solubility is > 41.3 µg/mL.
`O=S(=O)(O)c1nc2ccccc2[nH]1`: the solubility (kinetic) is > 29.7 µg/mL.
For `CCOc1ccccc1NC(=S)N1CCCCCC1` the value was > 41.8 µg/mL; for `O=C(COC(=O)c1cc(S(=O)(=O)N2CCOCC2)c(Cl)cc1Cl)NCc1ccco1`, > 71.6 µg/mL; for `CC1(C)CC(NC(=O)c2cccc(F)c2)CC(C)(C)N1`, 40.8 µg/mL (≈ 147 µM).
As for `CC1(C)CC(=O)N(c2cccc(C(F)(F)F)c2)C(=O)C1`, the solubility (kinetic) was found to be 8.1 µg/mL (≈ 28.4 µM). This solubility kinetic lies about 5-fold lower than the previous one.
For `O=C(CSc1nc2ncc(Cl)cc2[nH]1)N1CCC(Cc2ccccc2)CC1` the value was 1 µg/mL (≈ 2.49 µM).
Next, `COc1ccc(F)cc1S(=O)(=O)NCCN1CCOCC1`: > 47.8 µg/mL.
For `CN(CC(=O)Nc1ccc(F)cc1[N+](=O)[O-])C1CCS(=O)(=O)C1` (stereo not given) the value was > 51.8 µg/mL; for `O=C(COc1ccc(F)cc1F)N1CCCCCCC1`, > 42.5 µg/mL.
Consider `O=C(NC(=S)Nc1cccnc1Cl)c1ccc(F)cc1`, for which the kinetic solubility is 6.4 µg/mL (≈ 20.7 µM).
For `c1ccc(NC2=Nc3cccc4cccc2c34)cc1` the value was 0.6 µg/mL (≈ 2.46 µM); for `COc1ccc(/C=N/NC(=O)CNC(=O)c2ccncc2)cc1`, > 46.8 µg/mL; for `C=CCN1C(=O)C2(OCCCO2)c2cc(Cl)ccc21`, 33.7 µg/mL (≈ 120 µM).
Compound `O=C(Nc1ccncc1)Nc1ccccc1Cl` displayed a solubility (kinetic) of 33.5 µg/mL (≈ 135 µM).
Next, `Nc1ncc2c(n1)-c1ccoc1CC2`: > 28.1 µg/mL; `COCC(C)NCc1cccc2ccccc12.O=C(O)C(=O)O` (stereo not given): > 47.9 µg/mL.
For `S=C(Nc1ccc(Cl)cc1Cl)N1CCN(c2ccccn2)CC1` the value was 1 µg/mL (≈ 2.72 µM).
For `O=C(COC(=O)c1ccc(Cl)nc1)Nc1ccc2c(c1)CCC2` the value was 5.3 µg/mL (≈ 16 µM); for `O=C(C(=O)N1CCOCC1)c1cn(Cc2ccccc2)c2ccccc12`, 6.4 µg/mL (≈ 18.4 µM); for `CN1C(=O)C2(OCCCO2)c2ccccc21`, 31.6 µg/mL (≈ 144 µM).
The compound `O=C(NCc1ccccc1)N1CCN(c2ccccc2)CC1` gave a kinetic solubility of 16.2 µg/mL (≈ 54.8 µM).
For `CN(c1c[nH]c(=O)[nH]c1=O)C1CCCCC1` the value was > 33.5 µg/mL; for `CC(C)CNC(=S)NC(=O)c1csc([N+](=O)[O-])c1`, 2.8 µg/mL (≈ 9.74 µM); for `CCn1c(=O)ccc2cc([N+](=O)[O-])ccc21`, > 32.7 µg/mL.
For `N#Cc1ccccc1OCC(=O)OCC(=O)c1ccc[nH]1` the value was 24.9 µg/mL (≈ 87.6 µM); for `COc1ccc2oc(C(=O)OCC(=O)Nc3ccc(C(=O)N(C)C)cc3)c(C)c2c1`, 58.7 µg/mL (≈ 143 µM).
`CN1C(=O)c2ccc(NC(=O)CSc3ccccc3)cc2C1=O` came in with a kinetic solubility of 6.3 µg/mL (≈ 19.3 µM). Compared with the last compound, the solubility kinetic is about 9.3-fold lower.
`c1ccc(CN2CCC3(CC2)Nc2ccccc2S3)cc1` displayed a solubility (kinetic) of 27.9 µg/mL (≈ 94.1 µM). Against the preceding compound, the solubility kinetic is about 4.4-fold higher.
For `O=C(Nc1ccccc1)c1ccc2c(c1)OCCCO2` the value was > 40.4 µg/mL; for `Cc1ccc(OCCNC(=O)CNC(=O)c2ccc(Cl)c([N+](=O)[O-])c2)cc1`, 12.6 µg/mL (≈ 32.2 µM).
`O=C(O)C1CCC(CNCc2ccncc2)CC1` (stereo not given): the kinetic solubility is 36.7 µg/mL (≈ 148 µM).
For `COc1ccc(S(=O)(=O)Nc2cccnc2)c(C)c1C` the value was 19.8 µg/mL (≈ 67.7 µM); for `CC(=O)N1CCN(c2ccc(S(=O)(=O)N3CCOCC3)cc2[N+](=O)[O-])CC1`, > 59.8 µg/mL; for `NC(=O)CN1C(=O)C(=O)N(Cc2ccccc2)C1=O`, 38.7 µg/mL (≈ 148 µM).
Next, `O=C(CN1CCN(c2ccccc2)CC1)Nc1ccncc1`: 38.6 µg/mL (≈ 130 µM); `O=C(O)C1CCN(S(=O)(=O)Cc2ccccc2)CC1`: 33.3 µg/mL (≈ 118 µM).
For the compound `COc1ccc2c(c1)CCC/C2=N/OC(=O)c1ccccc1OC`, the solubility (kinetic) is 2.6 µg/mL (≈ 7.99 µM). This solubility kinetic is about 13-fold lower than that of the compound before.
For `CCN1C=C(C(=O)OC)C(c2cccc(OC)c2OC)C(C(=O)OC)=C1` the value was 8.4 µg/mL (≈ 23.2 µM).
